ChEMBL document CHEMBL4393707, “Synthesis and evaluation of new quinazolin-4(3H)-one derivatives as potent antibacterial agents against multidrug resistant Staphylococcus aureus and Mycobacterium tuberculosis” (Eur J Med Chem, 2019)
Converted amounts (≈) assume the structure as drawn. The source made the active and inactive calls. The rule behind the calls is not given here.

Experiments:
[1] = tested on: Acinetobacter baumannii; assay: Antibacterial activity against Acinetobacter baumannii BAA1605 incubated for 16 to 18 hrs by broth microdilution assay; format: functional
[2] = tested on: Klebsiella pneumoniae; assay: Antibacterial activity against Klebsiella pneumoniae ATCC BAA-1705 incubated for 16 to 18 hrs by broth microdilution assay; format: functional
[3] = tested on: Staphylococcus aureus; assay: Antibacterial activity against Staphylococcus aureus ATCC 29213 incubated for 16 to 18 hrs by broth microdilution assay; format: functional
[4] = tested on: Escherichia coli; assay: Antibacterial activity against Escherichia coli ATCC 25922 incubated for 16 to 18 hrs by broth microdilution assay; format: functional
[5] = tested on: Pseudomonas aeruginosa; assay: Antibacterial activity against Pseudomonas aeruginosa ATCC 27853 incubated for 16 to 18 hrs by broth microdilution assay; format: functional
[6] = tested on: Mycobacterium tuberculosis; assay: Antitubercular activity against Mycobacterium tuberculosis H37Rv after 7 days by resazurin dye based assay; format: functional; conditions: 168 h
[7] = Cytotoxicity against African green monkey Vero cells assessed as reduction in cell viability after 72 hrs by MTT assay; format: cell-based; conditions: chlorocebus sabaeus
[8] = Selectivity index, ratio of CC50 for African green monkey Vero cells to MIC for Mycobacterium tuberculosis H37Rv; format: toxicity; conditions: read-out: Selectivity Index
[9] = Selectivity index, ratio of CC50 for African green monkey Vero cells to MIC for Staphylococcus aureus ATCC 29213; format: toxicity; conditions: read-out: Selectivity Index
[10] = tested on: Staphylococcus aureus; assay: Antibacterial activity against vancomycin-resistant Staphylococcus aureus VRS12 incubated for 16 to 18 hrs by broth microdilution assay; format: functional
[11] = tested on: Staphylococcus aureus; assay: Antibacterial activity against vancomycin-resistant Staphylococcus aureus VRS4 incubated for 16 to 18 hrs by broth microdilution assay; format: functional
[12] = tested on: Staphylococcus aureus; assay: Antibacterial activity against vancomycin-resistant Staphylococcus aureus VRS1 incubated for 16 to 18 hrs by broth microdilution assay; format: functional
[13] = tested on: Staphylococcus aureus; assay: Antibacterial activity against methicillin-resistant Staphylococcus aureus NR10194 incubated for 16 to 18 hrs by broth microdilution assay; format: functional
[14] = tested on: Staphylococcus aureus; assay: Antibacterial activity against methicillin-resistant Staphylococcus aureus NR10191 incubated for 16 to 18 hrs by broth microdilution assay; format: functional
[15] = tested on: Staphylococcus aureus; assay: Antibacterial activity against methicillin-resistant Staphylococcus aureus NR10193 incubated for 16 to 18 hrs by broth microdilution assay; format: functional
[16] = tested on: Staphylococcus aureus; assay: Antibacterial activity against methicillin-resistant Staphylococcus aureus NR10186 incubated for 16 to 18 hrs by broth microdilution assay; format: functional
[17] = tested on: Staphylococcus aureus; assay: Antibacterial activity against methicillin-resistant Staphylococcus aureus NR100 incubated for 16 to 18 hrs by broth microdilution assay; format: functional
[18] = tested on: Staphylococcus aureus; assay: Antibacterial activity against methicillin-resistant Staphylococcus aureus NR10192 incubated for 16 to 18 hrs by broth microdilution assay; format: functional
[19] = tested on: Staphylococcus aureus; assay: Antibacterial activity against methicillin-resistant Staphylococcus aureus NR119 incubated for 16 to 18 hrs by broth microdilution assay; format: functional
[20] = tested on: Staphylococcus aureus; assay: Antibacterial activity against methicillin-resistant Staphylococcus aureus NR10129 incubated for 16 to 18 hrs by broth microdilution assay; format: functional
[21] = tested on: Staphylococcus aureus; assay: Antibacterial activity against methicillin-resistant Staphylococcus aureus NR10198 incubated for 16 to 18 hrs by broth microdilution assay; format: functional
[22] = tested on: Staphylococcus aureus; assay: Antibacterial activity against methicillin-susceptible Staphylococcus aureus ATCC 29213 incubated for 16 to 18 hrs by broth microdilution assay; format: functional
[23] = tested on: Staphylococcus aureus; assay: Antibacterial activity against Staphylococcus aureus ATCC 29213 assessed as time required to increase 1 log10 CFU at MIC incubated for 1 hr followed by compound washout and measured at 1 hr intervals (reference value: 2 hrs); format: functional
[24] = tested on: Staphylococcus aureus; assay: Antibacterial activity against Staphylococcus aureus ATCC 29213 assessed as time required to increase 1 log10 CFU at 10 times MIC incubated for 1 hr followed by compound washout and measured at 1 hr intervals (reference value: 2 hrs); format: functional
[25] = tested on: Staphylococcus aureus; assay: Antibacterial activity against Staphylococcus aureus ATCC 29213 assessed as post antibiotic effect time at MIC incubated for 1 hr followed by compound washout and measured at 1 hr intervals (reference value: 0 hrs); format: functional
[26] = tested on: Staphylococcus aureus; assay: Antibacterial activity against Staphylococcus aureus ATCC 29213 assessed as post antibiotic effect time at 10 times MIC incubated for 1 hr followed by compound washout and measured at 1 hr intervals (reference value: 0 hrs); format: functional
[27] = tested on: Staphylococcus aureus; assay: Antibiofilm activity against Staphylococcus aureus ATCC 29213 at 10 times MIC incubated 48 hrs by crystal violet staining based assay relative to control; format: functional
[28] = tested on: Staphylococcus aureus; assay: Antimicrobial activity against Staphylococcus aureus ATCC 29213 infected in BALB/c mouse model of neutropenic thigh infection assessed reduction in bacterial levels in thigh at 25 mg/kg, ip administered 3 hrs post infection twice at interval of 3 hrs between injections and measured after 24 hrs; format: functional, organism-based

Row | SMILES | MIC [1] [µg/mL] | MIC [2] [µg/mL] | MIC [3] [µg/mL] | MIC [4] [µg/mL] | MIC [5] [µg/mL] | MIC [6] [µg/mL] | CC50 at 72 h [7] [µg/mL] | selectivity ratio [8] | other results
1 | Cc1nc2ccc(OCc3cn(-c4ccc(Cl)cc4)nn3)cc2c(=O)n1-c1ccccc1 | > 64 | > 64 | > 64 | > 64 | > 64 | 16 (≈ 36 µM) | > 33.3 | > 2.08 | –
2 | C#CCOc1cccc(-n2c(/C=C/c3ccc(C#N)cc3)nc3cccc(F)c3c2=O)c1 | > 64 | > 64 | 0.5 (≈ 1.19 µM) | > 64 | > 64 | 2 (≈ 4.75 µM) | 5 to 10 (≈ 11.9 to 23.7 µM) | > 5 | selectivity ratio [9]: > 10
3 | C[C@@H](O)[C@H]1C(=O)N2C(C(=O)O)=C(S[C@@H]3CN[C@H](C(=O)N(C)C)C3)[C@H](C)[C@H]12 [MEROPENEM] | – | – | 0.25 (≈ 0.652 µM) | – | – | – | – | – | MIC [10]: > 64 µg/mL; MIC [11]: > 64 µg/mL; MIC [12]: > 64 µg/mL; MIC [13]: 0.5 µg/mL (≈ 1.3 µM); MIC [14]: > 64 µg/mL; MIC [15]: 32 µg/mL (≈ 83.4 µM); MIC [16]: 16 to 32 µg/mL (≈ 41.7 to 83.4 µM); MIC [17]: > 64 µg/mL; MIC [18]: 4 to 8 µg/mL (≈ 10.4 to 20.9 µM); MIC [19]: > 64 µg/mL; MIC [20]: 16 µg/mL (≈ 41.7 µM); MIC [21]: 32 µg/mL (≈ 83.4 µM); MIC [22]: < 0.5 µg/mL
4 | C[C@H]1COc2c(N3CCN(C)CC3)c(F)cc3c(=O)c(C(=O)O)cn1c23.C[C@H]1COc2c(N3CCN(C)CC3)c(F)cc3c(=O)c(C(=O)O)cn1c23.O [LEVOFLOXACIN] | – | 64 | 0.125 to 0.25 | – | 0.5 | – | – | – | MIC [10]: 32 to 64 µg/mL; MIC [11]: > 64 µg/mL; MIC [12]: 32 µg/mL; MIC [13]: 0.5 µg/mL; MIC [14]: 16 to 32 µg/mL; MIC [15]: 32 µg/mL; MIC [16]: 4 to 8 µg/mL; MIC [17]: < 0.5 µg/mL; MIC [18]: 4 to 8 µg/mL; MIC [19]: 16 µg/mL; MIC [20]: 0.5 µg/mL; MIC [21]: 32 µg/mL; MIC [22]: < 0.5 µg/mL; Time [23]: 3 h; Time [24]: 3 h; Time [25]: 1 h; Time [26]: 1 h; Activity [27]: 30.6%
5 | Cc1nc2ccc(OCc3cn(-c4cccc(Cl)c4)nn3)cc2c(=O)n1-c1ccccc1 | > 64 | > 64 | > 64 | > 64 | > 64 | 16 (≈ 36 µM) | > 100 | > 6.25 | –
6 | CN[C@H](CC(C)C)C(=O)N[C@H]1C(=O)N[C@@H](CC(N)=O)C(=O)N[C@H]2C(=O)N[C@H]3C(=O)N[C@H](C(=O)N[C@H](C(=O)O)c4cc(O)cc(O)c4-c4cc3ccc4O)[C@H](O)c3ccc(c(Cl)c3)Oc3cc2cc(c3O[C@@H]2O[C@H](CO)[C@@H](O)[C@H](O)[C@H]2O[C@H]2C[C@](C)(N)[C@H](O)[C@H](C)O2)Oc2ccc(cc2Cl)[C@H]1O [VANCOMYCIN] | – | – | – | – | – | – | – | – | MIC [10]: > 64 µg/mL; MIC [11]: > 64 µg/mL; MIC [12]: > 64 µg/mL; Time [23]: 3 h; Time [24]: 4 h; Time [25]: 1 h; Time [26]: 2 h; Activity [27]: 7.7%; Activity [28]: Active
7 | Cc1nc2cc(-c3ccc(F)cc3)ccc2c(=O)n1-c1cccc(Cl)c1 | > 64 | > 64 | > 64 | > 64 | > 64 | 16 (≈ 43.9 µM) | > 15 | > 0.93 | –
8 | C#Cc1cccc(-n2c(/C=C/c3ccc(C#N)cc3)nc3cccc(F)c3c2=O)c1 | > 64 | > 64 | 0.25 (≈ 0.639 µM) | > 64 | > 64 | > 64 | > 10 | – | selectivity ratio [9]: > 40
9 | C#CCNc1ccc2c(=O)n(-c3ccccc3)c(C)nc2c1 | > 64 | > 64 | > 64 | > 64 | > 64 | 4 (≈ 13.8 µM) | > 100 | > 25 | –
10 | Cc1nc2cc(-c3ccccc3)ccc2c(=O)n1-c1cccc(Cl)c1 | > 64 | > 64 | > 64 | > 64 | > 64 | 16 (≈ 46.1 µM) | 12.5 (≈ 36 µM) | 0.78 | –
11 | N#Cc1ccc(/C=C/c2nc3ncccc3c(=O)n2-c2ccc(S)cc2)cc1 | > 64 | > 64 | 2 (≈ 5.23 µM) | > 64 | > 64 | > 64 | > 10 | – | selectivity ratio [9]: > 5
